From patent US20230212170A1, “INHIBITORS OF KRAS G12C PROTEIN AND USES THEREOF” (SHANGHAI ANTENGENE CORPORATION LIMITED, priority 2020, published 2023)

Target: KRAS G12C (Homo sapiens, UniProt P01116, G12C)
Assay: KRAS G12C nucleotide exchange assay (SOS1-mediated, mant-GDP fluorescence)
Assay type: biochemical
Design: KRas(1-169) G12C protein
Settings: 15 min pre-incubation
Procedure: Assay 1: KRAS G12C Nucleotide Exchange Assay
1×Loading buffer: 20 mM HEPES, pH 7.5, 50 mM NaCl, 0.5 mM MgCl2, 1 mM DTT, 5 mM EDTA
1×Equilibration buffer: 20 mM HEPES, pH 7.5, 150 mM NaCl, 1 mM MgCl2, 1 mM DTT
1×Assay buffer: 20 mM HEPES, pH 7.5, 150 mM NaCl, 1 mM MgCl2, 0.01% Tween-20, 1 mM DTT
2. Load Mant GDP to KRAS G12C:
a. A mixed solution of 100 µL mant GDP and KRAS G12C was prepared with 1×loading buffer: 60 um KRAS G12C, 600 um […], incubated at room temperature for 60 minutes, and the reaction was carried out in dark conditions.
b. Add 1 uL 1 m MgCl2 (final concentration 10 mm) to stop the reaction, mix the solution upside down in the centrifuge tube, centrifugate for 3-5 seconds, and incubate at room temperature for 30 minutes.
c. At the same time of incubation for 30 minutes, balance nap-5 column with 10 ml ix equipment buffer until no liquid drops.
d. Drop the mixed solution of 100 uL mant GDP and KRAS G12C into the center of nap-5 column. After the sample completely enters nap-5 column, add 400 µL 1× equipment buffer until no liquid drops.
e. Add 500 ul 1× equipment buffer for elution and collect eluant.
f. Determination of KRAS G12C mant GDP with Bradford protein quantitative Kit.
3. Nucleotide Exchange Experiment:
a. Transfer 50 NL DMSO/compound to 384 well plate with echo550.
b. 10 uL enzyme mix was added into 384 pore plate and incubated with DMSO/compound for 15 min.
c. Initial reaction with 10 µL Sos1/GTP mix.
d. Immediately after reaction, read ex360/em440 fluorescence value in kinetic mode with Nivo.
a. Use Graphpad software to process data and draw pictures.
b. K value is obtained in Graphpad software by fitting One phase experimental deck model.
c. Z′=1-3*(SdKmax+SdKmin)/(AveKmax−AveKmin)
d. In % is calculated by the following formula:
Inh%=(Kmax−Ksample)/(Kmax−Kmin)*100

KRAS G12C, sequence (P01116 1-169 isoform P01116-2 G12C): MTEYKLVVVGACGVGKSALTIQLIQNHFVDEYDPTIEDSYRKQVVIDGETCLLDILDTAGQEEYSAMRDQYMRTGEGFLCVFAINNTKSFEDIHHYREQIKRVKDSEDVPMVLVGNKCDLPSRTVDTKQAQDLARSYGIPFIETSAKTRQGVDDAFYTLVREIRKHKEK

SMILES	IC50 [nM]
C=CC(=O)N1CCN(c2nc(OC[C@@H]3CCCN3C)nc3c(=O)n(-c4cccc5cccc(Cl)c45)c(C)nc23)CC1 [Compound 3, (S)-8-(4-acryloylpiperazin-1-yl)-3-(8-chloronaphthalen-1-yl)-2-methyl-6-((1-methylpyrrolidin-2-yl)methoxy)pyrimido[5,4-d]pyrimidin-4(3H)-one]	8240
C=CC(=O)N1CCN(c2nc(OC[C@@H]3CCCN3C)nc3c(=O)n(-c4cccc5ccccc45)cnc23)CC1 [Compound 5, (S)-8-(4-acryloylpiperazin-1-yl)-6-((1-methylpyrrolidin-2-yl)methoxy)-3-(naphthalen-1-yl)pyrimido[5,4-d]pyrimidin-4(3H)-one]	52300
C=CC(=O)N1CCN(c2nc(OC[C@@H]3CCCN3C)nc3c(=O)n(-c4cccc5cccc(C)c45)c(C)nc23)CC1 [Compound 6, (S)-8-(4-acryloylpiperazin-1-yl)-2-methyl-3-(8-methylnaphthalen-1-yl)-6-((1-methylpyrrolidin-2-yl)methoxy)pyrimido[5,4-d]pyrimidin-4(3H)-one]	1780
C=CC(=O)N1CCN(c2nc(OC[C@@H]3CCCN3C)nc3c(=O)n(-c4cccc5cccc(C)c45)c(C)nc23)C[C@@H]1CC#N [Compound 7, 2-((S)-1-acryloyl-4-(6-methyl-7-(8-methylnaphthalen-1-yl)-2-(((S)-1-methylpyrrolidin-2-yl)methoxy)-8-oxo-7,8-dihydropyrimido[5,4-d]pyrimidin-4-yl)piperazin-2-yl)acetonitrile]	390
C=CC(=O)N1C[C@H](C)N(c2nc(OC[C@@H]3CCCN3C)nc3c(=O)n(-c4cccc5cccc(Cl)c45)c(C)nc23)C[C@@H]1C [Compound 8, 8-((2S,5S)-4-acryloyl-2,5-dimethylpiperazin-1-yl)-3-(8-chloronaphthalen-1-yl)-2-methyl-6-(((S)-1-methylpyrrolidin-2-yl)methoxy)pyrimido[5,4-d]pyrimidin-4(3H)-one]	60700
C=CC(=O)N1CCN(c2nc(OC[C@@H]3CCCN3C)nc3c(=O)n(-c4cccc5cccc(CC)c45)c(C)nc23)C[C@@H]1CC#N [Compound 9, 2-((S)-1-acryloyl-4-(7-(8-ethylnaphthalen-1-yl)-6-methyl-2-(((S)-1-methylpyrrolidin-2-yl)methoxy)-8-oxo-7,8-dihydropyrimido[5,4-d]pyrimidin-4-yl)piperazin-2-yl)acetonitrile]	1070
C=CC(=O)N1CCN(c2nc(OC[C@@H]3CCCN3C)nc3c(=O)n(-c4cccc5cccc(C6CC6)c45)c(C)nc23)C[C@@H]1CC#N [Compound 10, 2-((S)-1-acryloyl-4-(7-(8-cyclopropylnaphthalen-1-yl)-6-methyl-2-(((S)-1-methylpyrrolidin-2-yl)methoxy)-8-oxo-7,8-dihydropyrimido [5,4-d]pyrimidin-4-yl)piperazin-2-yl)acetonitrile]	840
C=CC(=O)N1CCN(c2nc(OC[C@@H]3CCCN3C)nc3c(=O)n(-c4cccc5cccc(C(=C)C)c45)c(C)nc23)C[C@@H]1CC#N [Compound 11, 2-((S)-1-acryloyl-4-(6-methyl-2-(((S)-1-methylpyrrolidin-2-yl)methoxy)-8-oxo-7-(8-(prop-1-en-2-yl)naphthalen-1-yl)-7,8-dihydropyrimido[5,4-d]pyrimidin-4-yl)piperazin-2-yl)acetonitrile]	2940
C=CC(=O)N1CCN(c2nc(OC[C@@H]3CCCN3C)nc3c(=O)n(-c4cc(OC)cc5ccccc45)c(C)nc23)C[C@@H]1CC#N [Compound 12, 2-((S)-1-acryloyl-4-(7-(3-methoxynaphthalen-1-yl)-6-methyl-2-(((S)-1-methylpyrrolidin-2-yl)methoxy)-8-oxo-7,8-dihydropyrimido[5,4-d]pyrimidin-4-yl)piperazin-2-yl)acetonitrile]	900
C=CC(=O)N1CCN(c2nc(OC[C@@H]3CCCN3C)nc3c(=O)n(-c4cccc5cccc(Cl)c45)c(CC)nc23)C[C@@H]1CC#N [Compound 13, 2-((S)-1-acryloyl-4-(7-(8-chloronaphthalen-1-yl)-6-ethyl-2-(((S)-1-methylpyrrolidin-2-yl)methoxy)-8-oxo-7,8-dihydropyrimido[5,4-d]pyrimidin-4-yl)piperazin-2-yl)acetonitrile]	390
C=CC(=O)N1CCN(c2nc(OC[C@@H]3CCCN3C)nc3c(=O)n(-c4cccc5ccccc45)c(CC)nc23)C[C@@H]1CC#N [Compound 14, 2-((S)-1-acryloyl-4-(6-ethyl-2-(((S)-1-methylpyrrolidin-2-yl)methoxy)-7-(naphthalen-1-yl)-8-oxo-7,8-dihydropyrimido[5,4-d]pyrimidin-4-yl)piperazin-2-yl)acetonitrile]	860
C=CC(=O)N1CCN(c2nc(OC[C@@H]3CCCN3C)nc3c(=O)n(-c4cccc5ncccc45)c(C)nc23)C[C@@H]1CC#N [Compound 15, 2-((S)-1-acryloyl-4-(6-methyl-2-(((S)-1-methylpyrrolidin-2-yl)methoxy)-8-oxo-7-(quinolin-5-yl)-7,8-dihydropyrimido[5,4-d]pyrimidin-4-yl)piperazin-2-yl)acetonitrile]	2930
C=CC(=O)N1CCN(c2nc(OC[C@@H]3CCCN3C)nc3c(=O)n(-c4c(C)c(C)cc5[nH]ncc45)c(C)nc23)C[C@@H]1CC#N [Compound 16, 2-((S)-1-acryloyl-4-(7-(5,6-dimethyl-1H-indazol-4-yl)-6-methyl-2-(((S)-1-methylpyrrolidin-2-yl)methoxy)-8-oxo-7,8-dihydropyrimido[5,4-d]pyrimidin-4-yl)piperazin-2-yl)acetonitrile]	820
C=CC(=O)N1CCN(c2nc(OC[C@@H]3CCCN3C)nc3c(=O)n(-c4cccc5ccccc45)c(-c4ccccc4)nc23)C[C@@H]1CC#N [Compound 17, 2-((S)-1-acryloyl-4-(2-(((S)-1-methylpyrrolidin-2-yl)methoxy)-7-(naphthalen-1-yl)-8-oxo-6-phenyl-7,8-dihydropyrimido[5,4-d]pyrimidin-4-yl)piperazin-2-yl)acetonitrile]	480
C=CC(=O)N1CCN(c2nc(OC[C@@H]3CCCN3C)nc3c(=O)n(-c4cccc5ccccc45)c(-c4ccccc4)nc23)CC1 [Compound 18, (S)-8-(4-acryloylpiperazin-1-yl)-6-((1-methylpyrrolidin-2-yl)methoxy)-3-(naphthalen-1-yl)-2-phenylpyrimido[5,4-d]pyrimidin-4(3H)-one]	9970
C=CC(=O)N1CCN(c2nc(OC[C@@H]3CCCN3C)nc3c2CCCC(c2c(C)ccc4[nH]ncc24)C3)CC1 (stereo partly drawn) [Compound 20, 1-(4-(8-(5-methyl-1H-indazol-4-yl)-2-(((S)-1-methylpyrrolidin-2-yl)methoxy)-6,7,8,9-tetrahydro-5H-cyclohepta[d]pyrimidin-4-yl)piperazin-1-yl)prop-2-en-1-one]	2880
C=CC(=O)N(C)C1CCN(c2nc(OC[C@@H]3CCCN3C)nc3c2CCN(c2cccc4cccc(Cl)c24)C3)C1 (stereo partly drawn) [Compound 21, N-(1-(7-(8-chloronaphthalen-1-yl)-2-(((S)-1-methylpyrrolidin-2-yl)methoxy)-5,6,7,8-tetrahydropyrido[3,4-d]pyrimidin-4-yl)pyrrolidin-3-yl)-N-methylacrylamide]	19000
C=CC(=O)N1CCN(c2nc(OC[C@@H]3CCCN3C)nc3c(=O)n(-c4c(C)ccc5[nH]ncc45)c(C)nc23)CC1 [Compound 22, (S)-8-(4-acryloylpiperazin-1-yl)-2-methyl-3-(5-methyl-1H-indazol-4-yl)-6-((1-methylpyrrolidin-2-yl)methoxy)pyrimido[5,4-d]pyrimidin-4(3H)-one]	22900
C=CC(=O)N1CCN(c2nc(OC[C@@H]3CCCN3C)nc3c(=O)n(-c4c(C)ccc5[nH]ncc45)c(C)nc23)C[C@@H]1CC#N [Compound 23, 2-((S)-1-acryloyl-4-(6-methyl-7-(5-methyl-1H-indazol-4-yl)-2-(((S)-1-methylpyrrolidin-2-yl)methoxy)-8-oxo-7,8-dihydropyrimido[5,4-d]pyrimidin-4-yl)piperazin-2-yl)acetonitrile]	710
C=CC(=O)N1CCN(c2nc(OC[C@@H]3CCCN3C)nc3c(=O)n(-c4cccc5ccccc45)c(C)nc23)CC1 [Example 1, (S)-8-(4-acryloylpiperazin-1-yl)-2-methyl-6-((1-methylpyrrolidin-2-yl)methoxy)-3-(naphthalen-1-yl)pyrimido[5,4-d]pyrimidin-4(3H)-one]	35400
